Data reported in patent US7811778B2, “Methods of screening for gastrointestinal cancer” (Vanderbilt University, priority 2006, dated 2010).
Where “and” joins values, the source holds several entries; their conditions need not be identical. Equal entries are not always repeated. Entries after “also recorded” stand apart in the source; their conditions may differ.

How the values were obtained:
parietal cells = conditions: cited from earlier work
emerging SPEM cells = assay: Quantitative PCR of transcripts in microdissected cells during emergence of SPEM; assay type: in vivo, gastrin-deficient mice
Protocol: Total RNA isolated from laser-capture microdissected cell collections from the stomachs of normal and DMP-777 1-day-treated and DMP-777 3-day—treated gastrin-deficient mice was analyzed by quantitative PCR assays. Reverse transcription from each total RNA sample was performed using random primers and Quantiscript Reverse transcriptase (Qiagen. Valencia, Calif.), for 30 minutes at 42° C. Quantitative real-time PCR was performed with a 3-step method using the Bio-Rad iCycler iQ real-time PCR detection system (Bio-Rad Laboratories, Hercules, Calif.). Each reaction was carried out in a 50 μL mixture consisting of QuantiTect SYBR Green PCO Master Mix (Qiagen), and 1 μL of template cDNA. The PCR conditions for quantitative real-time PCR were; 95° C. for 10 minutes 45 cycles of 94° C. for 15 seconds, 60° C. for 30 seconds, and 72° C. for 30 seconds. Quantitation of cDNA template in each sample was determined using the comparative threshold cycle (CT) method using GAPDH as a control, as described previously (Nomura S, Baxter S, Yamaguchi T, Leys C, Vartapetian A B, Fox J G, Lee J R, Wang T C, Goldenring J R. Relationship of spasmolytic polypeptide expressing metaplasia (SPEM) to pre-neoplasia in H. felis-infected mice. Gastroenterology 2004; 127:582-594). Statistical comparisons of the mean ΔΔCT between groups were determined using the Mann-Whitney U Test
However, by quantitative PCR assays, TFF2 levels were elevated greater than 7-fold in emerging SPEM from DMP-777 treated animals (FIG. 5).

[1] = test system: chief cells / SPEM cells at the bases of fundic glands; assay: Electron microscopy of gastric fundic region; assay type: in vivo; conditions: gastrin-deficient mice treated for 3 days with DMP-777
Protocol: Fresh specimens from the gastric fundic region of untreated controls and 3-day DMP-777 treated gastrin-deficient mice fixed for 2.5 hour on ice in 2.5% glutaraldehyde, 0.1 M Cacodytate Buffer in PBS. The samples were fixed overnight at 4° C. in 1% osmium tetroxide (OSO4) and 0.1M Cacodylate Buffer. Subsequently, the samples were subjected to an ethanol dehydration series and embedded in Spurrs resin. 50˜100 nm thin sections were cut and collected on 200-mesh, formvar-coated copper grids. After drying overnight, the grids were contrast stained with 2% depleted Uranyl Acetate (UA) and then stained with saturated lead citrate. Samples were examined on a Philips CM12 Electron Microscope.

[2] = microdissected cells, DMP-777 1 or 3 days vs untreated chief cells

Structure (SMILES): CCC[C@@H](NC(=O)N1C(=O)C(CC)(CC)[C@@H]1Oc1ccc(C(=O)N2CCN(C)CC2)cc1)c1ccc2c(c1)OCO2 [DMP-777]
- inflammatory infiltrate (parietal cells; DMP-777 treated animals): absence of significant inflammatory infiltrate
- induction of SPEM in gastrin-deficient (knockout) mice (parietal cells; gastrin knockout mice): rapid induction of metaplasia after only one day of DMP-777 treatment; also recorded: develop SPEM after only one dose of DMP-777; also recorded: develop SPEM after only a single dose of DMP-777
- surface cell (foveolar) hyperplasia in response to DMP-777 (parietal cells; gastrin knockout mice): do not develop surface cell hyperplasia
- cells expressing both intrinsic factor and TFF2 (dual expressing cells) (parietal cells; gastrin-deficient mice, after only one day of treatment): rapid increase in dual expressing cells
- loss of parietal cells (parietal cells; mice or rats, high doses of oral DMP-777 (>200 mg/kg/d), three days of administration): rapid loss of parietal cells
- time of oxyntic atrophy until SPEM develops in the fundus (parietal cells; mice or rats, oral DMP-777 >200 mg/kg/d): 7 to 10 days
- dysplastic lesions (parietal cells; mice or rats, prolonged administration of drug for up to a year): no dysplastic lesions are ever observed
- time to loss of acid-secreting parietal cells (parietal cells; rodents): within one to three days
- days of treatment required for SPEM in wild type C57BL/6 mice (parietal cells; wild type C57BL/6 mice): 7 to 10 days and 10 to 14 days
- TFF2 levels by quantitative PCR (emerging SPEM cells; emerging SPEM from DMP-777 treated animals vs untreated chief cells): greater than 7 fold
- G1/S associated transcripts MCM3, MCM5, MCM7 and ATF3 by quantitative PCR (emerging SPEM cells; [2]): up-regulation of G1/associated transcripts was confirmed
- ST3Gal6 transcript by quantitative PCR (emerging SPEM cells; [2]): down-regulation ST3Gal6 was confirmed
- transcripts for putative soluble mediators HE4 and IL1RN by quantitative PCR (emerging SPEM cells; [2]): up-regulation of transcripts for putative soluble mediators was also confirmed
- granule morphology of SPEM cells at the bases of fundic glands (electron microscopy) [1]: heterogeneous set of granule morphologies
- morphological evidence of apoptosis (electron microscopy) [1]: no morphological evidence of apoptosis
